Reference: ChEMBL document CHEMBL1201862, “PubChem BioAssay data set” (2004)
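Five compound concentrations were applied to cells in 96-well plates for 48 hours; endpoints were derived by simple linear interpolation of the resulting dose-response curve. Abbreviation: GI50, concentration required for 50% inhibition of growth.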 Active and inactive are the calls of the source. Cut-off read from the data, not from the text of the source: active = GI50 up to about 1.1 µM and inactive = higher.

Tests used:
Assay in all cases: DTP human tumour cell line panel, 48 h
[1] = test system: SN12C
[2] = test system: KM12
[3] = test system: SNB-19
[4] = test system: NCI-H226
[5] = test system: COLO 205
[6] = test system: SF-539
[7] = test system: HCT-116
[8] = test system: HCC 2998
[9] = test system: SK-MEL-28
[10] = test system: OVCAR-5
[11] = test system: SF-268
[12] = test system: Hs-578T
[13] = test system: EKVX
[14] = test system: HCT-15
[15] = test system: PC-3
[16] = test system: CCRF-CEM
[17] = test system: HOP-62
[18] = test system: U-251
[19] = test system: SR
[20] = test system: ACHN
[21] = test system: SK-OV-3
[22] = test system: MOLT-4
[23] = test system: LOX IMVI
[24] = test system: NCI/ADR-RES
[25] = test system: NCI-H460
[26] = test system: K562
[27] = test system: BT-549
[28] = test system: DU-145
[29] = test system: OVCAR-4
[30] = test system: OVCAR-8
[31] = test system: TK-10
[32] = test system: NCI-H23
[33] = test system: SK-MEL-5
[34] = test system: NCI-H522
[35] = test system: CAKI-1
[36] = test system: RPMI-8226
[37] = test system: MDA-MB-435
[38] = test system: OVCAR-3
[39] = test system: A498
[40] = test system: A549
[41] = test system: HT-29
[42] = test system: MDA-MB-231
[43] = test system: MDA-N
[44] = test system: 786-0
[45] = test system: UACC-257
[46] = test system: UO-31
[47] = test system: T47D
[48] = test system: SF-295
[49] = test system: HL-60
[50] = test system: SW-620
[51] = test system: RXF 393
[52] = test system: UACC-62
[53] = test system: M14
[54] = test system: Malme-3M
[55] = test system: HOP-92
[56] = test system: SNB-75
[57] = test system: SK-MEL-2
[58] = test system: IGROV-1
[59] = test system: MCF7

`CCOC(=O)C(NC(=O)CC(C)C)(Nc1ccc(S(=O)(=O)Nc2nc(C)cc(C)n2)cc1)C(F)(F)F` (configuration not stated) was tested, and the GI50 [1] was > 100 µM (inactive), the GI50 [2] was > 100 µM (inactive) and the GI50 [3] was > 100 µM (inactive). For the same compound, the GI50 [4] was > 100 µM (inactive), the GI50 [5] was > 100 µM (inactive) and the GI50 [6] was > 100 µM (inactive). For the same compound, the GI50 [7] was > 100 µM (inactive), the GI50 [8] was 7.87 µM (inactive) and the GI50 [9] was > 100 µM (inactive). For the same compound, the GI50 [10] was > 100 µM (inactive), the GI50 [11] was > 100 µM (inactive) and the GI50 [12] was > 100 µM (inactive). For the same compound, the GI50 [13] was > 100 µM (inactive), the GI50 [14] was greater than 100 µM and the GI50 [15] was > 100 µM (inactive). For the same compound, the GI50 [16] was > 100 µM (inactive), the GI50 [17] was > 100 µM (inactive) and the GI50 [18] was > 100 µM (inactive). The GI50 [19] was > 100 µM (inactive), the GI50 [20] was > 100 µM (inactive) and the GI50 [21] was > 100 µM (inactive). The GI50 [22] was > 100 µM (inactive), the GI50 [23] was > 100 µM (inactive) and the GI50 [24] was > 100 µM (inactive). The GI50 [25] was > 100 µM (inactive), the GI50 [26] was > 100 µM (inactive) and the GI50 [27] was > 100 µM (inactive). The GI50 [28] was > 100 µM (inactive), the GI50 [29] was > 100 µM (inactive) and the GI50 [30] was > 100 µM (inactive). For the same compound, the GI50 [31] was > 100 µM (inactive), the GI50 [32] was > 100 µM (inactive) and the GI50 [33] was > 100 µM (inactive). The GI50 [34] was > 100 µM (inactive), the GI50 [35] was > 100 µM (inactive) and the GI50 [36] was > 100 µM (inactive). For the same compound, the GI50 [37] was > 100 µM (inactive), the GI50 [38] was > 100 µM (inactive) and the GI50 [39] was > 100 µM (inactive). The GI50 [40] was > 100 µM (inactive), the GI50 [41] was > 100 µM (inactive) and the GI50 [42] was > 100 µM (inactive). For the same compound, the GI50 [43] was > 100 µM (inactive), the GI50 [44] was > 100 µM (inactive) and the GI50 [45] was > 100 µM (inactive). For the same compound, the GI50 [46] was > 100 µM (inactive), the GI50 [47] was > 100 µM (inactive) and the GI50 [48] was > 100 µM (inactive). For the same compound, the GI50 [49] was > 100 µM (inactive), the GI50 [50] was > 100 µM (inactive) and the GI50 [51] was > 100 µM (inactive). The GI50 [52] was > 100 µM (inactive), the GI50 [53] was > 100 µM (inactive) and the GI50 [54] was > 100 µM (inactive). For the same compound, the GI50 [55] was > 100 µM (inactive), the GI50 [56] was 89.9 µM (inactive) and the GI50 [57] was > 100 µM (inactive). The GI50 [58] was > 100 µM (inactive).

For `Cc1cn(C2CC(n3cc(Cn4cc(Br)c(=O)[nH]c4=O)nn3)C(CO)O2)c(=O)[nH]c1=O` (configuration not stated), the GI50 [1] was > 100 µM (inactive), the GI50 [2] was 47.3 µM (inactive) and the GI50 [3] was 37.8 µM (inactive). For the same compound, the GI50 [59] was > 100 µM (inactive), the GI50 [5] was > 100 µM (inactive) and the GI50 [6] was > 100 µM (inactive). For the same compound, the GI50 [7] was 52.5 µM (inactive), the GI50 [8] was > 100 µM (inactive) and the GI50 [9] was > 100 µM (inactive). The GI50 [10] was > 100 µM (inactive), the GI50 [11] was > 100 µM (inactive) and the GI50 [12] was > 100 µM (inactive). The GI50 [13] was > 100 µM (inactive), the GI50 [14] was greater than 100 µM and the GI50 [15] was > 100 µM (inactive). For the same compound, the GI50 [16] was 0.668 µM (active), the GI50 [17] was > 100 µM (inactive) and the GI50 [18] was 39.1 µM (inactive). For the same compound, the GI50 [20] was > 100 µM (inactive), the GI50 [21] was 63.2 µM (inactive) and the GI50 [22] was 30.7 µM (inactive). The GI50 [23] was > 100 µM (inactive), the GI50 [24] was 68.2 µM (inactive) and the GI50 [27] was > 100 µM (inactive). The GI50 [28] was > 100 µM (inactive), the GI50 [29] was > 100 µM (inactive) and the GI50 [30] was 13 µM (inactive). The GI50 [31] was > 100 µM (inactive), the GI50 [32] was > 100 µM (inactive) and the GI50 [33] was 89.5 µM (inactive). The GI50 [35] was > 100 µM (inactive), the GI50 [36] was 52.6 µM (inactive) and the GI50 [37] was 42.1 µM (inactive). The GI50 [38] was > 100 µM (inactive), the GI50 [39] was > 100 µM (inactive) and the GI50 [40] was > 100 µM (inactive). For the same compound, the GI50 [42] was > 100 µM (inactive), the GI50 [43] was 62.2 µM (inactive) and the GI50 [44] was 93.1 µM (inactive). For the same compound, the GI50 [45] was > 100 µM (inactive), the GI50 [46] was 88.1 µM (inactive) and the GI50 [47] was > 100 µM (inactive). The GI50 [48] was 41.9 µM (inactive), the GI50 [49] was 0.0395 µM (active) and the GI50 [50] was > 100 µM (inactive). For the same compound, the GI50 [51] was > 100 µM (inactive), the GI50 [52] was > 100 µM (inactive) and the GI50 [53] was > 100 µM (inactive). The GI50 [54] was > 100 µM (inactive), the GI50 [55] was 20.4 µM (inactive) and the GI50 [56] was 60.5 µM (inactive). The GI50 [57] was > 100 µM (inactive) and the GI50 [58] was 80 µM (inactive).

In the case of `CC(C)CC(N)C(=O)Nc1ccc2ccccc2c1` (configuration not stated), the GI50 [1] is reported as > 100 µM (inactive), the GI50 [2] is reported as 0.316 µM (active) and the GI50 [3] is reported as > 100 µM (inactive). The GI50 [59] was > 100 µM (inactive), the GI50 [4] was 67.8 µM (inactive) and the GI50 [5] was > 100 µM (inactive). The GI50 [6] was > 100 µM (inactive), the GI50 [7] was > 100 µM (inactive) and the GI50 [8] was > 100 µM (inactive). The GI50 [9] was > 100 µM (inactive), the GI50 [10] was > 100 µM (inactive) and the GI50 [11] was > 100 µM (inactive). The GI50 [12] was > 100 µM (inactive), the GI50 [13] was > 100 µM (inactive) and the GI50 [14] was greater than 100 µM. For the same compound, the GI50 [15] was > 100 µM (inactive), the GI50 [16] was > 100 µM (inactive) and the GI50 [17] was > 100 µM (inactive). The GI50 [18] was > 100 µM (inactive), the GI50 [19] was > 100 µM (inactive) and the GI50 [20] was > 100 µM (inactive). The GI50 [21] was > 100 µM (inactive), the GI50 [22] was > 100 µM (inactive) and the GI50 [23] was > 100 µM (inactive). The GI50 [24] was > 100 µM (inactive), the GI50 [26] was > 100 µM (inactive) and the GI50 [27] was > 100 µM (inactive). The GI50 [28] was > 100 µM (inactive), the GI50 [29] was 9.4 µM (inactive) and the GI50 [30] was > 100 µM (inactive). The GI50 [31] was > 100 µM (inactive), the GI50 [32] was > 100 µM (inactive) and the GI50 [33] was > 100 µM (inactive). For the same compound, the GI50 [34] was > 100 µM (inactive), the GI50 [35] was 63.1 µM (inactive) and the GI50 [36] was > 100 µM (inactive). The GI50 [38] was 8.2 µM (inactive), the GI50 [39] was > 100 µM (inactive) and the GI50 [40] was > 100 µM (inactive). The GI50 [41] was > 100 µM (inactive), the GI50 [42] was > 100 µM (inactive) and the GI50 [43] was > 100 µM (inactive). The GI50 [44] was > 100 µM (inactive), the GI50 [45] was > 100 µM (inactive) and the GI50 [46] was > 100 µM (inactive). The GI50 [47] was > 100 µM (inactive), the GI50 [48] was > 100 µM (inactive) and the GI50 [49] was 98.2 µM (inactive). For the same compound, the GI50 [50] was > 100 µM (inactive), the GI50 [51] was > 100 µM (inactive) and the GI50 [52] was > 100 µM (inactive). The GI50 [53] was > 100 µM (inactive), the GI50 [54] was > 100 µM (inactive) and the GI50 [56] was > 100 µM (inactive). The GI50 [57] was > 100 µM (inactive) and the GI50 [58] was > 100 µM (inactive).
